Test results published in PMC8123395, “Aggregation and Its Influence on the Bioactivities of a Novel Antimicrobial Peptide, Temporin-PF, and Its Analogues” (International Journal of Molecular Sciences, 2021).
≈ marks a conversion by molar mass, not a printed value. Like-named read-outs stand apart in the source and are kept apart here. Non-standard residues stand in square brackets, D forms with d. Residues, ends and D or L forms follow the SMILES beside them. No end group written: not given here.

How the values were obtained:
[1] = tested on: Enterococcus faecalis (NCTC 12697); assay type: cell-based
Description: (§1) The minimum inhibitory concentration (MIC) and minimum bactericidal concentration (MBC) of peptides against the selected microorganisms were determined using the broth-dilution method, as described in the previous study. […] were used in the assay: Gram-positive bacteria Staphylococcus aureus (NCTC 10788), Enterococcus faecalis (NCTC 12697), and methicillin-resistant S. aureus (MRSA) (NCTC 12493); Gram-negative bacteria Escherichia coli (NCTC 10418), Pseudomonas aeruginosa (ATCC 27853), and Klebsiella pneumoniae (ATCC 43816). All the strains were cultured in Mueller Hinton Broth (MHB), pH 7.4 (Oxiod, Basingstoke, UK). Each peptide was tested at the final concentration from 128 to 1 µM in two-fold dilution. Norfloxacin was applied as the positive control.

[2] = tested on: Escherichia coli (NCTC 10418); assay type: cell-based
Description: as §1

[3] = tested on: Klebsiella pneumoniae (ATCC 43816); assay type: cell-based
Description: as §1

[4] = tested on: Pseudomonas aeruginosa (ATCC 27853); assay type: cell-based
Description: as §1

[5] = tested on: Staphylococcus aureus (NCTC 10788); assay type: cell-based
Description: as §1

[6] = tested on: methicillin-resistant S. aureus (MRSA) (NCTC 12493); assay type: cell-based
Description: as §1

[7] = tested on: MRSA biofilm; assay type: cell-based; details: 24 h
Description: (§2) MBIC and MBEC assays were performed as previously described with minor modifications. For the MBIC assay, a suspension of broth diluted bacteria culture (5 × 10^5 CFU/mL) was incubated with the peptide solutions at 37 °C for 24 h. For MBEC assay, 100 μL inoculum culture was seeded to a 96-well-flat-bottom plate and incubated at 37 °C for 48 h to obtain the mature biofilm. Afterwards, the plate was washed by sterile phosphate-buffered saline (PBS; Sigma-Aldrich, Gillingham, UK) twice and treated with a series peptide solution at 37 °C for 24 h. Then, all the plates were washed with PBS and stained by 100 μL 0.1% crystal violet solution (Sigma-Aldrich, Gillingham, UK), and further dissolved by 30% acetic acid (Sigma-Aldrich, Gillingham, UK). The absorbance of each well was recorded by Synergy HT plate reader (Biotech, Minneapolis, MN, USA) at 595 nm.

[8] = tested on: MRSA mature biofilm; assay type: cell-based
Description: as §2

[9] = tested on: S. aureus biofilm; assay type: cell-based; details: 24 h
Description: as §2

[10] = tested on: S. aureus mature biofilm; assay type: cell-based
Description: as §2

[11] = Circular dichroism, helix content by BeStSel; assay type: physicochemical; details: CD, room temperature, BeStSel analysis; for Helix Content % DPPC: 50 μM peptide in 3 mM DPPC SUVs (erythrocyte membrane mimic); for Helix Content % DPPG/DPPE: 50 μM peptide in 3 mM DPPG/DPPE (88:12) SUVs (bacterial membrane mimic); for Helix Content % 50% TFE: 50 μM peptide in 50% TFE/10 mM NH4AC, three scans averaged
Description: Figure 8 CD spectra of TPF and the analogs (50 μM) prepared in 10 mM NH4AC, 50% TFE/10 mM NH4AC, 3 mM DPPG/DPPE (88:12) SUVs, and 3 mM DPPC SUVs. The spectra were averaged over three consecutive scans, and the solvent CD signal was subtracted.
The determination of the secondary structure of peptides was conducted using a JASCO J-815 CD Spectropolarimeter (JASCO Inc., Tokyo, Japan) as described in the previous study. Then, 50 μM of each peptide sample was prepared in the aqueous 10 mM ammonium acetate (NH4Ac; Sigma-Aldrich, Gillingham, UK) buffer, 50% (v/v) 2,2,2-trifluoroethanol (TFE; Sigma-Aldrich, Gillingham, UK), and 3 mM DPPG:DPPE (88:12) and DPPC small unilamellar liposomes/vesicles (SUVs) that were used to mimic the bacterial and mammalian erythrocyte cell membranes, respectively. The liposome was hydrated in deionized water and then sonicated for 15 min with an interval 30 s in an ice bath for generating SUVs. Samples were loaded in a 1-mm thickness quartz cuvette and analyzed at room temperature with the following parameters: scan range of 190–250 nm, scanning speed of […], 1 nm bandwidth, and 0.5 nm data pitch. The spectra were obtained by averaging data from three scans. The CD spectra were analyzed by BeStSel (http://bestsel.elte.hu/index.php, accessed on 16 May 2020) for the determination of secondary structure content.

[12] = RP-HPLC retention order of mixed peptides (overall hydrophobicity); assay type: physicochemical; details: peptides mixed in equal ratio and subjected to RP-HPLC; Supplementary Figure S4
Description: All peptides were chemically synthesized and purified by RP-HPLC. They were further mixed with an equal ratio and subjected to RP-HPLC. […] Subsequently, all peptides (1 mg/mL) were dissolved in a series of widely used culture media (Figure 2).
N-terminal Phe of temporin was believed to participate in the packaging of “head-tail” oligomerization. […] Furthermore, Trp/D-Trp substitution carried out on des-Phe1 TPF enhanced the peptide aggregation. […] It may be related to the decrease of the helical content; however, it could also be caused by the change of aggregation effects. Previous studies have shown that AMPs with strong antimicrobial activity are present as monomers in an aqueous solution and aggregate on the membrane to disrupt the bacterial cell membrane. […] It has been proposed that some aggregation effects of AMPs could limit the interaction of the peptide with its target, thereby reducing the antibacterial efficacy. In the previous study, the zipper-like motif is associated with the bioactivities as well as the assembly in the LPS micelles, which was considered to arise from hydrophobic interactions mainly. However, the overall hydrophobicity of Trp/D-Trp substituted analogs is less than that of des-Phe1 TPF, as estimated by RP-HPLC analysis. We hypothesize that the enhanced assembly seen for Trp/D-Trp substituted analogs might be related to the increased content of aromatic residues, because it could promote the strength of π stacking or cation-π type interaction. However, the true relation has not been fully clarified so far, and the capability of aromatic moieties to promote aggregation could also be affected by the hydrophobicity, position, and the neighboring side chains in their three-dimensional conformation.

[13] = tested on: horse erythrocytes; assay: Hemolysis test; assay type: cell-based; details: 2% horse erythrocyte suspension; peptide 128 to 1 µM; comparison among the four peptides
Description: Figure 9 Hemolytic activity of TPF and the analog against horse red blood cell. The percentage of hemolysis was calculated with the absorbance at 570 nm, compared with PBS-treated red blood cells. The error bar represents SD of five replicates.
The hemolytic activity of each peptide was measured by incubating a range of final peptide concentrations from 128 to 1 µM in a two-fold dilution in a 2% suspension of the horse erythrocytes, as described in a previous study. The absorbance of hemoglobin released from red blood cells was detected at 570 nm. The percentage of hemolysis was calculated by the comparison to the 1% Triton X-100 treated red blood cells.

[14] = Preliminary observation of solubility / hydrogel formation in PBS; assay type: physicochemical; details: peptide 10 mg/mL in PBS
Description: After the identification of TPF, the chemical synthesis of TPF was performed successfully. […] Therefore, we synthesized the des-Phe1 TPF to investigate the correlation between oligomerize effect and bioactivities. […] Therefore, we further substituted Phe with Trp and D-Trp to reveal the relationship between the oligomerization effect and the zipper motif and the influence on bioactivities (Table 1). The correct synthesis of peptides had been checked by MALDI-TOF mass spectrometry (Supplementary Figure S6) and synthetic yields were calculated (Supplementary Figure S7).

[15] = Observation of aggregation: turbidity (absorbance at 600 nm) in media and salt solutions; assay type: physicochemical; details: absorbance 600 nm, three replicates
Description: Figure 3 The absorbance of TPF and the analogs prepared in (a) a series of culture media, including PBS, RPMI1640, RPMI1640 with 10% FBS, TSB, and MHB; 0.25, 0.5, and 1 M of (b) Na2HPO4, (c) CaCl2, and (d) MgCl2 solutions. Peptide solutions were prepared from 1 mg/mL, and the wavelength was set as 600 nm. The error bar represents the standard deviation (SD) with three replicates.
The method was followed the previous study with modifications. The purified peptides were prepared at 10 mg/mL in water and subsequently diluted with different solutions, including PBS, RPMI1640, RPMI1640 with 10% FBS, TSB, MHB, Na2HPO4 (0.25, 0.5, and 1 M), CaCl2 (0.25, 0.5, and 1 M), and MgCl2 (0.25, 0.5, and 1 M), in a 96-well plate to achieve the final concentration of 1 mg/mL. The turbidity of each well was detected using the absorbance at 600 nm by a plate reader. The peptides dissolved in water were applied as negative control.

[16] = E. faecalis NCTC 12697, broth dilution in MHB pH 7.4, peptide 128 to 1 µM
[17] = E. coli NCTC 10418, broth dilution in MHB pH 7.4, peptide 128 to 1 µM
[18] = K. pneumoniae ATCC 43816, broth dilution in MHB pH 7.4, peptide 128 to 1 µM
[19] = P. aeruginosa ATCC 27853, broth dilution in MHB pH 7.4, peptide 128 to 1 µM
[20] = S. aureus NCTC 10788, broth dilution in MHB pH 7.4, peptide 128 to 1 µM two-fold dilution
[21] = MRSA NCTC 12493, broth dilution in MHB pH 7.4, peptide 128 to 1 µM

Molecule | MBC ([1]; NCTC 12697, pH 7.4) [µM] | MIC ([1]; NCTC 12697, pH 7.4) [µM] | MBC ([2]; NCTC 10418, pH 7.4) [µM] | MIC ([2]; NCTC 10418, pH 7.4) [µM] | MBC ([3]; ATCC 43816, pH 7.4) [µM] | MIC ([3]; ATCC 43816, pH 7.4) [µM] | MBC ([4]; ATCC 27853, pH 7.4) [µM] | MIC ([4]; ATCC 27853, pH 7.4) [µM] | MBC ([5]; NCTC 10788, pH 7.4) [µM] | MIC ([5]; NCTC 10788, pH 7.4) [µM] | MBC ([6]; NCTC 12493, pH 7.4) [µM] | MIC ([6]; NCTC 12493, pH 7.4) [µM] | MBIC ([7]; biofilm) | MBEC ([8]; mature biofilm, 48 h) | MBIC ([9]; biofilm) | MBEC ([10]; mature biofilm, 48 h) | Helix Content % DPPC [11] [%] | Helix Content % DPPG/DPPE [11] [%] | Helix Content % 50% TFE [11] [%] | order of retention time (RP-HPLC, used as estimate of overall hydrophobicity) [12] | also measured
CC[C@H](C)[C@H](NC(=O)[C@H](CC(C)C)NC(=O)[C@@H]1CCCN1C(=O)[C@@H](N)CC(C)C)C(=O)N[C@@H](C)C(=O)NCC(=O)N[C@@H](CC(C)C)C(=O)N[C@H](Cc1c[nH]c2ccccc12)C(=O)NCC(=O)N[C@@H](CCCCN)C(=O)N[C@H](C(=O)N[C@H](Cc1c[nH]c2ccccc12)C(N)=O)[C@@H](C)CC [dW-des-Phe1 TPF] (H-LPLIAGL[dW]GKI[dW]-NH2; N-terminus assumed) | > 128 | > 128 | > 128 | > 128 | > 128 | > 128 | > 128 | > 128 | 64 (≈ 87.4 µg/mL) | 64 (≈ 87.4 µg/mL) | > 128 | > 128 | >128/>128 µM | >128/>128 µM | >128/>128 µM | >128/>128 µM | 8.3 | 0.5 | 3.0 | TPF> des-Phe1 TPF> W-des-Phe1 TPF> dW-des-Phe1 TPF | 
FLPLIAGLFGKIF-NH2 [TPF] |  |  |  |  |  |  |  |  |  |  |  |  |  |  |  |  |  |  |  |  | MBC [1, 16]: 16 µM; MIC [1, 16]: 16 µM; MBC [2, 17]: > 128 µM; MIC [2, 17]: > 128 µM; MBC [3, 18]: > 128 µM; MIC [3, 18]: > 128 µM; MBC [4, 19]: > 128 µM; MIC [4, 19]: > 128 µM; MBC [5, 20]: 32 µM; MIC [5, 20]: 4 µM; MBC [6, 21]: 4 µM; MIC [6, 21]: 4 µM; MBIC ([7]; MRSA, 5 × 10^5 CFU/mL with peptide, 37 °C, crystal violet, absorbance 595 nm): 4 µM; MBEC ([8]; MRSA, 48 h mature biofilm treated with peptide 37 °C, 24 h, crystal violet, absorbance 595 nm): 16 µM; MBIC ([9]; S. aureus, 5 × 10^5 CFU/mL with peptide, 37 °C, crystal violet, absorbance 595 nm): 4 µM; MBEC ([10]; S. aureus, 48 h mature biofilm treated with peptide 37 °C, 24 h, crystal violet, absorbance 595 nm): 32 µM; hemolytic activity (in words) [13]: strongest hemhemolytic activity; solubility in PBS [14]: significantly decreased
LPLIAGLWGKIW-NH2 [W-des-Phe1 TPF] | 128 | 128 | 128 | 128 | 128 | 128 | > 128 | > 128 | 32 | 32 | 128 | 128 | 128/>128 µM | 128/>128 µM | 64 µM | > 128 µM | 10.1 | 26.9 | 27.7 | TPF> des-Phe1 TPF> W-des-Phe1 TPF> dW-des-Phe1 TPF | turbidity in culture media ([15]; peptide 1 mg/mL diluted from 10 mg/mL in water, PBS, RPMI1640, RPMI1640 with 10% FBS, TSB, MHB): increased outstandingly; salting-out effect in Na2HPO4 solutions ([15]; peptide 1 mg/mL, 0.25, 0.5 and 1 M Na2HPO4): strongest salting-out effect
